Tested on: Mouse Delayed Contact Dermatitis Induced by Picryl Chloride
Experiment: Mouse delayed contact dermatitis induced by picryl chloride
Assay type: in vivo
Protocol: Pharmacological Test Example 3 Mouse Delayed Contact Dermatitis Induced by Picryl Chloride
This pharmacological test was carried out referring to the method of Asherson, G. L. & Ptak, W. (Immunology, 15: 405–416 (1968).) and the method of Jun Hiroi (Folia Pharmacology of Japan, 86: 233–239 (1985).). More specifically, hairs on the abdomen of an ICR-strain male mouse were removed using an electric clipper and an electric shaver. Then, 0.1 mL of 7% ether solution of picryl chloride (Tokyo Kasei Kogyo Co., Ltd., C 0307) was applied onto the abdomen for sensitization. On the sixth day after the sensitization, 20 μL/ear of 1% olive oil solution of picryl chloride was topically applied to the anterior and posterior surfaces of both ears of the mouse to induce contact dermatitis (first induction). Before and 24 hours after the induction, the thicknesses of the particular parts on the both ears were measured three times, respectively, using a digimatic micrometer (Mitsutoyo Co., Ltd.) to work out the average values. Ear edema of the both ears was respectively determined by subtracting the average thickness of the each ear before the induction from that on 24 hours after the induction, so that a grouping was carried out to separate the appropriate individuals. On the fourth day after the first induction, the hairs on the abdomen were removed again, and 0.1 mL of 7% ethanol solution of picryl chloride was applied thereto for additional sensitization. The contact dermatitis for evaluating activity was induced by re-applying 20 μL/ear of 1% olive oil solution of picryl chloride to the anterior and posterior surfaces of both ears (second induction) on the seventh day after the additional sensitization (on the […] after the first sensitization). The activity of each compound of the present invention was evaluated as the inhibition on the contact dermatitis as compared with that of the vehicle applied control. That is, the thicknesses of the particular portions of the both ears were measured respectively three times with a digimatic micrometer to work out the mean values before, 24 hours and 48 hours after the second induction. Ear swelling was determined by subtracting the ear thickness before the second induction from that on 24 hours and 48 hours after the second induction, respectively. Topical application activity was evaluated by applying 25 μL of the acetone solution of the compound of the present invention similarly to the anterior and posterior surfaces of the right ear one hour before and 16 hours after the second induction. As the positive control, 0.02 mg/20 μL of acetone solution of Dexamethasone (hereinafter referred to as DEX, Wako Pure Chemical Industries Ltd., 047-18863) was applied similarly as for the compound of the present invention. With respect to the inhibitory activity in topical application tests, the topical activity was determined by the inhibition of the applied right ear edema, and the translocation and distribution property was determined by the activity onto the swelling of non-treated left ear. Oral administration activity was evaluated by administrating 0.5% methyl cellulose suspension of the compound of the present invention forcibly and perorally to the mouse an hour before and 16 hours after the second induction. As the positive control, 20 mg/kg of Prednisolone (Sigma Chemical Co., P 6004) suspension was administrated similarly as for the compounds of the present invention. […] As the examples, the body weight changes in the mice for 48 hours after the second induction when they were administrated with the compounds shown in Table 5 are shown in Table 6.

In the case of CCOC(=O)C(=C1N[C@@H](C)[C@H](c2ccc(Cl)cc2)S1)[N+](=O)[O-] (relative stereo) [Compound 2-29, Trans-5-(4-chlorophenyl)-4-methyl-2-(1-ethoxycarbonyl-1-nitromethylene)-thiazolidine], the “Change in body weight 48 hours after induction (Mean ± S.E.)” value (1.5 mg/ear × 2, vehicle control −0.45 ± 0.20) is reported as -0.06 ± 0.15 g, the “Change in body weight 48 hours after induction (Mean ± S.E.) (%)” value (1.5 mg/ear × 2, vehicle control −1.29 ± 0.59) is reported as −0.20 ± 0.48% and the “Ear swelling after 24 hours, Right (Applied) (Mean ± S.E., mm)” value (topical 1.5 mg/25 μL/ear × 2, vehicle control 0.299 ± 0.006) is reported as 0.261 ± 0.012 mm. For the same compound, the “Ear swelling after 24 hours, Left (Not applied) (Mean ± S.E., mm)” value (topical 1.5 mg/25 μL/ear × 2 on right ear, vehicle control 0.284 ± 0.008) was 0.243 ± 0.020 mm.

— patent publication US7189751B2, “Oxa(thia)zolidine compounds, process for preparation thereof and anti-inflammatory agents” (Nippon Soda Co., Ltd., priority 2001, dated 2007)
